From ChEMBL document CHEMBL1201862, “PubChem BioAssay data set” (2004)
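A five-concentration, 48-hour dose response in 96-well plates underlies each endpoint, interpolated linearly between surrounding concentrations. Abbreviation: GI50, concentration required for 50% inhibition of growth.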 The source made the active and inactive calls. Cut-off read from the data, not from the text of the source: active = GI50 up to about 1.1 µM and inactive = higher.

Tests used:
Assay in all cases: growth of human tumour cells (NCI), 48 h
KM12 = tested on: KM12
SN12C = tested on: SN12C
SK-MEL-5 = tested on: SK-MEL-5
SNB-75 = tested on: SNB-75
SF-268 = tested on: SF-268
UACC-62 = tested on: UACC-62
A498 = tested on: A498
Malme-3M = tested on: Malme-3M
SK-MEL-2 = tested on: SK-MEL-2
DLD-1 = tested on: DLD-1
RPMI-8226 = tested on: RPMI-8226
HOP-18 = tested on: HOP-18
HCC 2998 = tested on: HCC 2998
LXFL 529 = tested on: LXFL 529
OVCAR-5 = tested on: OVCAR-5
DMS-114 = tested on: DMS-114
UO-31 = tested on: UO-31
RXF 631 = tested on: RXF 631
CCRF-CEM = tested on: CCRF-CEM
HT-29 = tested on: HT-29
RXF 393 = tested on: RXF 393
SF-295 = tested on: SF-295
OVCAR-4 = tested on: OVCAR-4
HCT-116 = tested on: HCT-116
NCI-H226 = tested on: NCI-H226
SF-539 = tested on: SF-539
EKVX = tested on: EKVX
TK-10 = tested on: TK-10
SNB-78 = tested on: SNB-78
K562 = tested on: K562
LOX IMVI = tested on: LOX IMVI
HL-60 = tested on: HL-60
UACC-257 = tested on: UACC-257
CAKI-1 = tested on: CAKI-1
IGROV-1 = tested on: IGROV-1
NCI-H460 = tested on: NCI-H460
HOP-62 = tested on: HOP-62
KM-20L2 = tested on: KM-20L2
SNB-19 = tested on: SNB-19
NCI-H23 = tested on: NCI-H23
M14 = tested on: M14
SK-MEL-28 = tested on: SK-MEL-28
A549 = tested on: A549
HCT-15 = tested on: HCT-15
SW-620 = tested on: SW-620
U-251 = tested on: U-251
XF498 = tested on: XF498
OVCAR-3 = tested on: OVCAR-3
MOLT-4 = tested on: MOLT-4
M19-MEL = tested on: M19-MEL
OVCAR-8 = tested on: OVCAR-8
COLO 205 = tested on: COLO 205
786-0 = tested on: 786-0
ACHN = tested on: ACHN
SR = tested on: SR
SK-OV-3 = tested on: SK-OV-3
NCI-H522 = tested on: NCI-H522
DMS-273 = tested on: DMS-273
HOP-92 = tested on: HOP-92

O=C(NCO)NCOCn1c(=O)n(CO)c(=O)n(CO)c1=O
GI50 (KM12): 31 µM (inactive) | GI50 (SN12C): > 60.7 µM (inactive) | GI50 (SK-MEL-5): 41.5 µM (inactive) | GI50 (SNB-75): 35.8 µM (inactive) | GI50 (SF-268): 31.3 µM (inactive) | GI50 (UACC-62): 19.1 µM (inactive) | GI50 (A498): > 100 µM (inactive) | GI50 (Malme-3M): 31.5 µM (inactive) | GI50 (SK-MEL-2): 17.9 µM (inactive) | GI50 (DLD-1): 24.9 µM (inactive) | GI50 (RPMI-8226): 25.4 µM (inactive) | GI50 (HOP-18): > 100 µM (inactive) | GI50 (HCC 2998): > 100 µM (inactive) | GI50 (LXFL 529): 20 µM (inactive) | GI50 (OVCAR-5): > 100 µM (inactive) | GI50 (DMS-114): 34.4 µM (inactive) | GI50 (UO-31): > 100 µM (inactive) | GI50 (RXF 631): > 61.7 µM (inactive) | GI50 (CCRF-CEM): 14.4 µM (inactive) | GI50 (HT-29): 32.6 µM (inactive) | GI50 (RXF 393): 15.2 µM (inactive) | GI50 (SF-295): > 91 µM (inactive) | GI50 (OVCAR-4): 32.1 µM (inactive) | GI50 (HCT-116): 31.6 µM (inactive) | GI50 (NCI-H226): > 100 µM (inactive) | GI50 (SF-539): > 100 µM (inactive) | GI50 (EKVX): > 100 µM (inactive) | GI50 (TK-10): > 100 µM (inactive) | GI50 (SNB-78): 28.4 µM (inactive) | GI50 (K562): 32.1 µM (inactive) | GI50 (LOX IMVI): 19 µM (inactive) | GI50 (HL-60): 22.3 µM (inactive) | GI50 (UACC-257): 49.9 µM (inactive) | GI50 (CAKI-1): 40.6 µM (inactive) | GI50 (IGROV-1): > 100 µM (inactive) | GI50 (NCI-H460): 33.1 µM (inactive) | GI50 (HOP-62): > 100 µM (inactive) | GI50 (KM-20L2): 38.6 µM (inactive) | GI50 (SNB-19): > 31.6 µM (inactive) | GI50 (NCI-H23): 19.8 µM (inactive) | GI50 (M14): 17.1 µM (inactive) | GI50 (SK-MEL-28): 22.1 µM (inactive) | GI50 (A549): 66.7 µM (inactive) | GI50 (HCT-15): 23.8 µM | GI50 (SW-620): 21.3 µM (inactive) | GI50 (U-251): > 60.8 µM (inactive) | GI50 (XF498): 23.2 µM (inactive) | GI50 (OVCAR-3): 84.1 µM (inactive) | GI50 (MOLT-4): 23.4 µM (inactive) | GI50 (M19-MEL): 32.4 µM (inactive) | GI50 (OVCAR-8): 32.9 µM (inactive) | GI50 (COLO 205): 27.4 µM (inactive) | GI50 (786-0): 34.6 µM (inactive) | GI50 (ACHN): 49.1 µM (inactive) | GI50 (SR): 29.2 µM (inactive) | GI50 (SK-OV-3): 99.8 µM (inactive)

O=C(O)[C@H](NS(=O)(=O)c1ccc2ccccc2c1)c1ccccc1
GI50 (SN12C): > 100 µM (inactive) | GI50 (SNB-75): > 100 µM (inactive) | GI50 (SF-268): > 100 µM (inactive) | GI50 (UACC-62): > 100 µM (inactive) | GI50 (A498): > 100 µM (inactive) | GI50 (Malme-3M): > 100 µM (inactive) | GI50 (SK-MEL-2): > 100 µM (inactive) | GI50 (NCI-H522): > 100 µM (inactive) | GI50 (DLD-1): > 100 µM (inactive) | GI50 (RPMI-8226): > 100 µM (inactive) | GI50 (HOP-18): > 100 µM (inactive) | GI50 (HCC 2998): > 100 µM (inactive) | GI50 (LXFL 529): > 100 µM (inactive) | GI50 (OVCAR-5): > 100 µM (inactive) | GI50 (UO-31): > 100 µM (inactive) | GI50 (RXF 631): > 100 µM (inactive) | GI50 (CCRF-CEM): > 100 µM (inactive) | GI50 (HT-29): > 100 µM (inactive) | GI50 (RXF 393): 20.6 µM (inactive) | GI50 (OVCAR-4): > 100 µM (inactive) | GI50 (SF-539): > 100 µM (inactive) | GI50 (K562): > 100 µM (inactive) | GI50 (LOX IMVI): > 100 µM (inactive) | GI50 (HL-60): > 100 µM (inactive) | GI50 (UACC-257): > 100 µM (inactive) | GI50 (CAKI-1): > 100 µM (inactive) | GI50 (IGROV-1): > 100 µM (inactive) | GI50 (NCI-H460): > 100 µM (inactive) | GI50 (KM-20L2): > 100 µM (inactive) | GI50 (SNB-19): > 100 µM (inactive) | GI50 (NCI-H23): > 100 µM (inactive) | GI50 (M14): > 100 µM (inactive) | GI50 (SK-MEL-28): > 100 µM (inactive) | GI50 (HCT-15): > 100 µM | GI50 (U-251): > 100 µM (inactive) | GI50 (XF498): 99.3 µM (inactive) | GI50 (MOLT-4): > 100 µM (inactive) | GI50 (M19-MEL): > 100 µM (inactive) | GI50 (COLO 205): > 100 µM (inactive) | GI50 (786-0): > 100 µM (inactive) | GI50 (DMS-273): > 100 µM (inactive) | GI50 (HOP-92): 45.3 µM (inactive) | GI50 (ACHN): > 100 µM (inactive) | GI50 (SK-OV-3): > 100 µM (inactive)
